Data from patent US20090176772A1, “METHOD OF REVERSING LEFT VENTRICULAR REMODELING” (priority 2004, published 2009).

Test system: dogs with chronic heart failure produced by multiple sequential intracoronary microembolizations
Experiment: Hemodynamic measurements in dogs with chronic heart failure, 3 months oral therapy
Assay type: in vivo, dog
Source text: The following example examines the effects of ranolazine alone and in combination with an angiotensin converting enzyme (ACE) inhibitor and in combination with a beta-blocker on the progression of left ventricular (LV) dysfunction and LV chamber remodeling in dogs with chronic heart failure produced by multiple sequential intracoronary microembolizations.
Chronic LV dysfunction and failure in dogs was produced by multiple sequential intracoronary embolizations with polystyrene Latex microspheres (77-109 μm in diameter) as previously described by Sabbah et al. (1991) Am. J. Physiol. 260:H1379-H1384. Coronary microembolizations were performed during cardiac catheterization under general anesthesia and sterile conditions. Anesthesia was induced using a combination of intravenous injections of hydromorphone (0.22 mg/kg), diazepam (0.2-0.6 mg/kg) and sodium pentobarbital 50-100 mg to effect. Plane of anesthesia was maintained throughout the study using 1% to 2% isoflurane. Left and right heart catheterization was performed via a femoral arteriotomy and venotomy. After each catheterization, the vessels were repaired using 6-0 silk and the skin closed with 4-0 suture. Microembolizations were discontinued when LV ejection fraction, determined angiographically, was between 30% and 40%. A period of 2 weeks was allowed after the last embolization to ensure that infarctions produced by the last microembolizations have completely healed and heart failure was established. The study protocol was then performed.
Healthy, conditioned, purpose-bred mongrel dogs weighing between 19 and 25 kg.
A randomized, blinded, placebo controlled study design was used. A total of 28 dogs underwent multiple sequential intracoronary microembolizations as described above to produce chronic heart failure. Two weeks after the last embolization, dogs were randomized into 4 study groups (treatment arms). Dogs were randomized to 3 months oral therapy with ranolazine alone (375 mg, bid, n=7), ranolazine (375 mg bid) in combination with metoprolol tartrate (25 mg bid, n=7), ranolazine (375 mg bid) in combination with enalapril (10 mg bid, n=7), or placebo (ranolazine vehicle bid, n=7). Hemodynamic, angiographic, echocardiographic, Doppler and neurohumoral measurements were made prior to randomization (2 weeks after the last embolization) and after completion of therapy (3 months after initiating therapy). After completing the final hemodynamic and angiographic study, dogs were euthanized and the hearts removed and tissue prepared and saved for future histological and biochemical evaluations. The study primary and secondary end-points were as follows:
All hemodynamic measurements were made during left and right heart catheterizations in anesthetized dogs. Baseline measurements, prior to any microembolizations, were be made to ensure that all hemodynamic parameters are within normal limits. Abnormal dogs were excluded from the study. The following parameters were measured in all dogs at all three study time periods: heart rate, mean aortic pressure, peak rate of change of LV pressure during isovolumic contraction (peak+dP/dt) and relaxation (peak−dP/dt), and LV end-diastolic pressure.
To ensure that all study measures were similar at baseline, comparisons were made between all 4 study groups before any embolizations and at the time of randomization before initiation of therapy. For these comparisons, a one way analysis of variance (ANOVA) was used with a set at 0.05. If significance was attained, then group wise comparisons were made using the Student-Newman-Kuels test with significance set at p≦0.05. Within group comparisons between pre-treatment and post-treatment measures were made using a Students paired t-test with p<0.05 considered significant. To assess treatment effect, the change (Δ) in each measure from pre-treatment to post-treatment was calculated for each of the 4 study arms. […]

[1] = POST: after 3 months of oral therapy bid, mean±SEM
[2] = PRE: at time of randomization, before therapy, mean±SEM
[3] = change from pre-treatment to post-treatment (3 months), mean±SEM

SMILES: COc1ccccc1OCC(O)CN1CCN(CC(=O)Nc2c(C)cccc2C)CC1 (racemic) [RAN Alone, (±)-N-(2,6-dimethylphenyl)-4-[2-hydroxy-3-(2-methoxyphenoxy)-propyl]-1-piperazineacetamide]
- +dP/dt = peak LV +dP/dt [1]: 1416 ± 124 mmHg/sec
- HR = heart rate [1]: 80 ± 4 beats/min
- LVEDP = LV end-diastolic pressure [1]: 10 ± 1 mmHg
- mAoP = mean aortic pressure [1]: 81 ± 7 mmHg
- −dP/dt = peak LV −dP/dt [1]: 1460 ± 134 mmHg/sec
- +dP/dt = peak LV +dP/dt [2]: 1253 ± 119 mmHg/sec
- HR = heart rate [2]: 77 ± 2 beats/min
- LVEDP = LV end-diastolic pressure [2]: 14 ± 1 mmHg
- mAoP = mean aortic pressure [2]: 72 ± 3 mmHg
- −dP/dt = peak LV −dP/dt [2]: 1254 ± 74 mmHg/sec
- LV end-diastolic pressure, intra-group comparison pre- vs post-treatment (at the end of 3 months of treatment): decreased significantly
- Δ +dP/dt (peak LV +dP/dt) [3]: 163 ± 81 mmHg/sec
- Δ HR (heart rate) [3]: 3.3 ± 4.9 beats/min
- Δ LVEDP (LV end-diastolic pressure) [3]: −4.4 ± 1.1 mmHg
- Δ mAoP (mean aortic pressure) [3]: 9.1 ± 6.9 mmHg
- Δ −dP/dt (peak LV −dP/dt) [3]: 206 ± 109 mmHg/sec
